Source: patent US8030494B2, “Optical recording material” (Adeka Corporation, priority 2006, dated 2011)

Assay: Evaluation of light resistance (absorbance retention of spin-coated film after irradiation)
Format: physicochemical
Settings: film spin-coated from 1% by mass 2,2,3,3-tetrafluoropropanol solution on polycarbonate plate; 55000 lux light for 100 hours; at λmax before irradiation
Experimental: The compounds obtained in Preparation Examples 1 to 8 and comparative compound No. 2 were evaluated for light resistance as follows. Each of the compounds was dissolved in 2,2,3,3-tetrafluoropropanol to prepare a 1% by mass solution. The solution was applied to a 20 mm by 20 mm polycarbonate plate by spin coating at 2000 rpm for 60 seconds to prepare a specimen. The specimen was irradiated with 55000 lux light for 100 hours. The UV absorption spectra measured before and after the irradiation were compared to calculate an absorbance retention at the λmax of the UV absorption spectrum before the irradiation.

Absorbance Retention (%): 0%
SMILES: C[N+]1=C(/C=C/c2ccccc2)C(C)(Cc2ccccc2)c2c1ccc1ccccc21 (stereo not shown) [comparative compound No. 2]
